From ChEMBL document CHEMBL1909046, “DrugMatrix in vitro pharmacology data” come the findings set out here.

The IC50 is the concentration that inhibits the measured activity by half. As a reminder, the Ki is a dissociation constant, usually derived from enzyme kinetics or from competition with a known ligand.

Series [1] addresses Kappa-type opioid receptor (Homo sapiens, UniProt P41145). The series can be described thus: DRUGMATRIX: Opiate kappa (OP2, KOP) radioligand binding (ligand: [3H] Diprenorphine). It is filed as cell membranes, HEK293, Membrane. Conditions: hek293; Not Active = under 50% inhibition at 10 µM.
For series [2], the target named is 5-hydroxytryptamine receptor 1B (Rattus norvegicus, UniProt P28564). It is filed as cell membranes, Wistar, Cerebral cortex, Membrane. Note: in other assays of this panel Not Active means under 50% inhibition at 10 µM.
Chain of 5-hydroxytryptamine receptor 1B (P28564 whole entry): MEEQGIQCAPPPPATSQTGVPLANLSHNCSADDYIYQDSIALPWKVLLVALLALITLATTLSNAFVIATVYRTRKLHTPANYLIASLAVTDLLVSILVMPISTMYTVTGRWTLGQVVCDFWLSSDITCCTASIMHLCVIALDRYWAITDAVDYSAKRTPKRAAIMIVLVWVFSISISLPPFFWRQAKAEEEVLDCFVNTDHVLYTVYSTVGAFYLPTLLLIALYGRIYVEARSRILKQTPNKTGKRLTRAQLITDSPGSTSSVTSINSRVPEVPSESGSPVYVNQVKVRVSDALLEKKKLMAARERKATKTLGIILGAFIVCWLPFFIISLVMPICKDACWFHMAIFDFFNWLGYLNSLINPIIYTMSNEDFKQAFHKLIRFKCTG
The target of series [3] is Voltage-gated inwardly rectifying potassium channel KCNH2 (Homo sapiens, UniProt Q12809). Particulars: hek293. Note: in other assays of this panel Not Active means under 50% inhibition at 10 µM.
Chain of Voltage-gated inwardly rectifying potassium channel KCNH2 (Q12809 whole entry): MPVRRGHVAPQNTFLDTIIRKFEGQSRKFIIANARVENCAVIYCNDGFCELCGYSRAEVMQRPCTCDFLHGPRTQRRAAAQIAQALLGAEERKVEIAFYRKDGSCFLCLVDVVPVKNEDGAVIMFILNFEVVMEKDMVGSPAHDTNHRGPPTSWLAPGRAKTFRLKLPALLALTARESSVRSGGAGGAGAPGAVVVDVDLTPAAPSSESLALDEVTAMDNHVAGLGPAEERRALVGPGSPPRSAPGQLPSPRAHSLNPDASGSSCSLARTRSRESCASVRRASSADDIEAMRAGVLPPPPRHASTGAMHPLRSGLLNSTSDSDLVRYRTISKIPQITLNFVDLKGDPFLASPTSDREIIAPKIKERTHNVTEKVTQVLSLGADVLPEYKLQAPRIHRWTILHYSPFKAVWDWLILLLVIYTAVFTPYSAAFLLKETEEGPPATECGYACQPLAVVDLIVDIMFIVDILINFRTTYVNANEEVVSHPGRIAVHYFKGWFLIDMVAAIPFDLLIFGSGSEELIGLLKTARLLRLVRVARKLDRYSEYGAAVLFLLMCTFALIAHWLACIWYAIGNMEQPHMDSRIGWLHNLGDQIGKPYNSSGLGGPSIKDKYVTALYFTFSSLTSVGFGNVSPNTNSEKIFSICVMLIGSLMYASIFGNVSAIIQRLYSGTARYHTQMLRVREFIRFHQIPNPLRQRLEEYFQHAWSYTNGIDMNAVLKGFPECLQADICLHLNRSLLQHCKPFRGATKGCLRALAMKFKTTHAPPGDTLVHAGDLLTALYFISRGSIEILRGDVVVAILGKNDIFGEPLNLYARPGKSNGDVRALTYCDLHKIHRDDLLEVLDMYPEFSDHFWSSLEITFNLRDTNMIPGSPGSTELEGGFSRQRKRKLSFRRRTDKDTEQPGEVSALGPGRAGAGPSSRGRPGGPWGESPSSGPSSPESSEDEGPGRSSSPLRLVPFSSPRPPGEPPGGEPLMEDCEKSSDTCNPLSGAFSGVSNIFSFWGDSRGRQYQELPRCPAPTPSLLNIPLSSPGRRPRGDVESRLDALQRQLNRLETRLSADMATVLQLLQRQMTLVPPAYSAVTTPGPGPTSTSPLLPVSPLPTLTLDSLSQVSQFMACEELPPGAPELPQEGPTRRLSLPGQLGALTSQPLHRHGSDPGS
Series [4] can be described thus: DRUGMATRIX: Platelet-Derived Growth Factor (PDGF) radioligand binding (ligand: [125I] PDGF). It counts as cell-based. Conditions: nih3t3; Not Active = under 50% inhibition at 10 µM.
The target of a further series is T1, Substance-K receptor (Homo sapiens, UniProt P21452). Note: in other assays of this panel Not Active means under 50% inhibition at 10 µM.
T1 sequence (P21452 whole entry): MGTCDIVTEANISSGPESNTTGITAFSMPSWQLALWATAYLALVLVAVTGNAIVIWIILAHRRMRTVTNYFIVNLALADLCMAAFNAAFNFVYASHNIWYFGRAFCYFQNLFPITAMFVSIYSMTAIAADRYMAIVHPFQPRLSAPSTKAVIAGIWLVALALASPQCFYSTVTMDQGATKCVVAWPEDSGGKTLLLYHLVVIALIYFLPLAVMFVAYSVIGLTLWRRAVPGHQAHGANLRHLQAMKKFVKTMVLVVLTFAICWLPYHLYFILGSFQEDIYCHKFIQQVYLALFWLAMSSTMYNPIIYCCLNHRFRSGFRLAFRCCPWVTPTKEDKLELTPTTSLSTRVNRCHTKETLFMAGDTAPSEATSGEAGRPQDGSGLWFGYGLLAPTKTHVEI
It is filed as cell membranes, CHO, Membrane. Conditions: cho.

In another series the target is Cytochrome P450 2C19 (Homo sapiens, UniProt P33261). Conditions: bti-tn-5b1-4. Note: in other assays of this panel Not Active means under 50% inhibition at 10 µM.
Chain of Cytochrome P450 2C19 (P33261 whole entry): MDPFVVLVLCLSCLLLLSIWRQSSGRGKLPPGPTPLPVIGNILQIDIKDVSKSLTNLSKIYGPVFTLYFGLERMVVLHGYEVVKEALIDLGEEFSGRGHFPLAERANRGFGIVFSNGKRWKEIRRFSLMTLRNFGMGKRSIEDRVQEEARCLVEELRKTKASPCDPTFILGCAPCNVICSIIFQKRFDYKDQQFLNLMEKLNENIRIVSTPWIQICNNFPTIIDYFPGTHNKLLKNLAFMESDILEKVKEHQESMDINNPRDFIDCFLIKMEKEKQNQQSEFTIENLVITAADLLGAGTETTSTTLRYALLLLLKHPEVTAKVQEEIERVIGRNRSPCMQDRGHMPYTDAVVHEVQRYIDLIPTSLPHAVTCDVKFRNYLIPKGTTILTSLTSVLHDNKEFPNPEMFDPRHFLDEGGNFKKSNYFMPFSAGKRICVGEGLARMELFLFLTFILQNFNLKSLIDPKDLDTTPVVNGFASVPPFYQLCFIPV

Chain of Kappa-type opioid receptor (P41145 whole entry): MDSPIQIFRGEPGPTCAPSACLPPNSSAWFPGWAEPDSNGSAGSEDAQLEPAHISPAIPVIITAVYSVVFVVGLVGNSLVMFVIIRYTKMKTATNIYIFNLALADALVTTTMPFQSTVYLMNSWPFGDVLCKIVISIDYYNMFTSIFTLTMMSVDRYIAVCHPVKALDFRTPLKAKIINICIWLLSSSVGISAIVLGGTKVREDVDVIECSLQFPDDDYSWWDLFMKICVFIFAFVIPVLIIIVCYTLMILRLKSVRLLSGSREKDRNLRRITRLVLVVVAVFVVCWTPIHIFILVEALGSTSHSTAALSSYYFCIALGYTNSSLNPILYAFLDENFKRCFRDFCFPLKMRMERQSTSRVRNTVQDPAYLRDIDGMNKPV

Turning to `CCOc1nc2cccc(C(=O)O)c2n1Cc1ccc(-c2ccccc2-c2nnn[nH]2)cc1`, the half-inhibitory concentration (IC50) result (in series [1]; in series [2]; in series [3]; in series [4]; at Substance-K receptor) was “Not Active” each time. In addition, the inhibitory constant (Ki) result in series [3] and in series [4] was “Not Active” throughout.
As for `O=C(O)CCCc1cccs1`, the half-inhibitory concentration (IC50) entry (in series [1]; in series [2]; in series [3]; in series [4]; on Cytochrome P450 2C19; at Substance-K receptor) was “Not Active” in each case. The Ki result (in series [3]; in series [4]; on Cytochrome P450 2C19) was “Not Active” each time.
As for `COc1ccccc1N`, the IC50 entry (in series [1]; in series [2]; in series [3]; in series [4]; against Cytochrome P450 2C19; against Substance-K receptor) was “Not Active” each time. The inhibitory constant (Ki) entry (in series [3]; in series [4]; on Cytochrome P450 2C19) was “Not Active” in each case.
Consider `O=C(c1ccccc1F)N1CCC(Cc2ccccc2)CC1`, for which the half-inhibitory concentration (IC50) result (in series [1]; in series [2]; in series [3]; in series [4]; at Substance-K receptor) was “Not Active” throughout. The Ki entry in series [3] and in series [4] was “Not Active” throughout.
Take `NC12CC3CC(CC(C3)C1)C2` [AMANTADINE]: the 50% inhibitory concentration (IC50) entry (in series [1]; in series [2]; in series [3]; in series [4]; on Substance-K receptor) was “Not Active” each time. The inhibition constant Ki entry in series [3] and in series [4] was “Not Active” each time.
For `CN(C)CCC=C1c2ccccc2CCc2ccccc21` [AMITRIPTYLINE], the IC50 result was “Not Active” in series [1]; 3730 nM in series [2] (read-out: IC50); “Not Active” in series [4]; “Not Active” on Cytochrome P450 2C19; “Not Active” against Substance-K receptor. For the same compound, the Ki in series [2] (read-out: Ki) is 1690 nM; in series [4] it was “Not Active”; on Cytochrome P450 2C19 it was “Not Active”.
As to `CC(C)c1c(C(=O)Nc2ccccc2)c(-c2ccccc2)c(-c2ccc(F)cc2)n1CC[C@@H](O)C[C@@H](O)CC(=O)O` [ATORVASTATIN], the IC50 entry (in series [1]; in series [2]; in series [4]; against Substance-K receptor) was “Not Active” in each case. Also, the inhibition constant Ki entry in series [4] is reported as “Not Active”.
Take `C#C[C@]1(O)CC[C@H]2[C@@H]3CCC4=CC(=O)CC[C@]4(C)[C@H]3CC[C@@]21C` [ETHISTERONE]: the concentration for half-maximal inhibition (IC50) result (in series [1]; in series [2]; in series [4]; at Cytochrome P450 2C19; on Substance-K receptor) was “Not Active” each time. For the same compound, the inhibitory constant (Ki) result (in series [4]; on Cytochrome P450 2C19) was “Not Active” throughout.
As to `CC(C)(C(=O)O)c1ccc(C(O)CCCN2CCC(C(O)(c3ccccc3)c3ccccc3)CC2)cc1` (stereo not drawn) [FEXOFENADINE], the IC50 result (in series [1]; in series [2]; in series [4]; against Substance-K receptor) was “Not Active” in each case. In addition, in series [4], the Ki result is listed as “Not Active”.
Take `CC(=O)OCC(=O)[C@@]12OC(C)(C)O[C@@H]1C[C@H]1[C@@H]3C[C@H](F)C4=CC(=O)C=C[C@]4(C)[C@@]3(F)[C@@H](O)C[C@@]12C` [FLUOCINONIDE]: the IC50 entry (in series [1]; in series [2]; in series [3]; in series [4]; at Substance-K receptor) was “Not Active” each time. The inhibition constant (Ki) entry in series [3] and in series [4] was “Not Active” in each case.
For `N[C@@H](Cn1ccc(=O)c(O)c1)C(=O)O` [L-MIMOSINE], the 50% inhibitory concentration (IC50) entry (in series [1]; in series [2]; in series [3]; in series [4]; on Substance-K receptor) was “Not Active” throughout. Further, the Ki entry in series [3] and in series [4] was “Not Active” each time.
Consider `C[N+](C)(C)C[C@H](O)CC(=O)[O-]` [LEVOCARNITINE], for which the IC50 entry (in series [2]; in series [3]; in series [4]; on Cytochrome P450 2C19; against Substance-K receptor) was “Not Active” throughout. In addition, the Ki entry (in series [3]; in series [4]; on Cytochrome P450 2C19) was “Not Active” each time.
As to `CCn1cc(C(=O)O)c(=O)c2cc(F)c(N3CCNC(C)C3)c(F)c21` (stereo not drawn) [LOMEFLOXACIN], the IC50 entry (in series [1]; in series [2]; in series [4]; at Cytochrome P450 2C19; at Substance-K receptor) was “Not Active” each time. Also, the inhibition constant (Ki) entry (in series [4]; on Cytochrome P450 2C19) was “Not Active” each time.
Take `C[C@]12CC[C@H]3[C@@H](CCC4=CC(=O)CC[C@@H]43)[C@@H]1CC[C@@H]2O` [NANDROLONE]: the concentration for half-maximal inhibition (IC50) entry (in series [2]; in series [3]; in series [4]; on Cytochrome P450 2C19; against Substance-K receptor) was “Not Active” in each case. The Ki entry (in series [3]; in series [4]; at Cytochrome P450 2C19) was “Not Active” in each case.
Take `C[C@@H]1C/C=C/C=C/C=C/C=C/[C@H](O[C@@H]2O[C@H](C)[C@@H](O)[C@H](N)[C@@H]2O)C[C@@H]2O[C@](O)(C[C@@H](O)C[C@H]3O[C@@H]3/C=C/C(=O)O1)C[C@H](O)[C@H]2C(=O)O` [NATAMYCIN]: the IC50 entry (in series [1]; in series [2]; in series [3]; in series [4]; against Substance-K receptor) was “Not Active” in each case. Moreover, the Ki entry in series [3] and in series [4] was “Not Active” throughout.
On to `CN(C)C(=O)Oc1cccc([N+](C)(C)C)c1.[Br-]` [NEOSTIGMINE BROMIDE], for which the concentration for half-maximal inhibition (IC50) result (in series [2]; in series [3]; in series [4]; against Cytochrome P450 2C19; against Substance-K receptor) was “Not Active” in each case. Also, the Ki result (in series [3]; in series [4]; on Cytochrome P450 2C19) was “Not Active” throughout.
As to `COc1ccc2c(c1OC)C(=O)O[C@@H]2[C@H]1c2c(cc3c(c2OC)OCO3)CCN1C` [NOSCAPINE], the concentration for half-maximal inhibition (IC50) entry (in series [1]; in series [2]; in series [3]; in series [4]; on Substance-K receptor) was “Not Active” throughout. Besides, the Ki result in series [3] and in series [4] was “Not Active” throughout.
Consider `C[C@@H]1O[C@@H](O[C@H]2C[C@@H](O)[C@]3(CO)[C@H]4[C@H](O)C[C@]5(C)[C@@H](C6=CC(=O)OC6)CC[C@]5(O)[C@@H]4CC[C@]3(O)C2)[C@H](O)[C@H](O)[C@H]1O` [OUABAIN], for which the IC50 entry (in series [2]; in series [3]; in series [4]; at Cytochrome P450 2C19; against Substance-K receptor) was “Not Active” throughout. For the same compound, the inhibition constant (Ki) result (in series [3]; in series [4]; at Cytochrome P450 2C19) was “Not Active” each time.
In the case of `N=C(N)c1ccc(OCCCCCOc2ccc(C(=N)N)cc2)cc1` [PENTAMIDINE], the 50% inhibitory concentration (IC50) result (in series [1]; in series [2]; in series [4]; against Cytochrome P450 2C19; against Substance-K receptor) was “Not Active” throughout. For the same compound, the Ki result (in series [4]; on Cytochrome P450 2C19) was “Not Active” each time.
For the compound `NNCCc1ccccc1` [PHENELZINE], the IC50 result (in series [2]; in series [3]; in series [4]; at Substance-K receptor) was “Not Active” each time. Further, the inhibitory constant (Ki) result in series [3] and in series [4] was “Not Active” throughout.
Consider `CCN(CC)CCNC(=O)c1ccc(N)cc1` [PROCAINAMIDE], for which the IC50 result (in series [1]; in series [2]; in series [3]; in series [4]; against Substance-K receptor) was “Not Active” each time. Further, the Ki result in series [3] and in series [4] was “Not Active” throughout.
In the case of `C[C@]12C=CC(=O)C=C1CC[C@H]1[C@@H]3C[C@@H](O)[C@](O)(C(=O)CO)[C@@]3(C)C[C@H](O)[C@@]12F` [TRIAMCINOLONE], the IC50 entry (in series [1]; in series [2]; in series [3]; in series [4]; against Substance-K receptor) was “Not Active” each time. The Ki entry in series [3] and in series [4] was “Not Active” each time.
Turning to COBALTOUS CHLORIDE, the IC50 entry (in series [2]; in series [3]; in series [4]; at Cytochrome P450 2C19; on Substance-K receptor) was “Not Active” each time. Besides, the Ki result (in series [2]; in series [3]; in series [4]; at Cytochrome P450 2C19; at Substance-K receptor) was “Not Active” each time.
Consider COLISTIN, for which the 50% inhibitory concentration (IC50) result (in series [2]; in series [3]; in series [4]; against Cytochrome P450 2C19; against Substance-K receptor) was “Not Active” throughout. Besides, the Ki result (in series [2]; in series [3]; in series [4]; on Cytochrome P450 2C19; on Substance-K receptor) was “Not Active” each time.
